Measured values: patent publication US11903944B1, “Experimental model using pazopanib-induced cardiotoxicity” (KING FAISAL UNIVERSITY, priority 2023, dated 2024)

Key:
Type in all cases: in vivo, Male Sprague Dawley rats
[1] = Electrocardiogram (ECG) recording for arrhythmia identification, experimental animal model for arrhythmia; settings: 100 mg/kg orally single dose, after 3 hours
Method: (§1) This experimental protocol was permitted by the Institutional Animal Care and Use Committee of King Faisal University. All the experiments were executed in harmony with the relevant procedures and regulations of the Ethical Conduct for the Use of Animals in Research at King Faisal University. Male Sprague Dawley rats weighing 150-200 g were purchased and accommodated in polypropylene cages and upheld at 27±2° C. under a 12 h light/dark sequence. Rats were kept and observed for 1 week in the animal house. The animals were fed with standard rat feed and allowed water ad libitum.
(§2) Animals were distributed into 5 groups, each group containing 6 rats (n=6). Group 1 is the control group in which animals were injected with normal saline intraperitoneally (IP). Group 2: The animals were treated with Pazopanib 30 mg/kg twice daily orally for 14 days to induce hypertension. This group represents the “Experimental animal model for hypertension.” Group 3: The animals were treated with Pazopanib 100 mg/kg orally as a single dose. This group represents the “Experimental animal model for arrhythmia.” Group 4: The animals were treated with Pazopanib 300 mg/kg/day orally for 21 days. This group represents the “Experimental animal model for Cardiac toxicity (oral)” Group 5: The animals were treated with Pazopanib 21 mg/kg/day intraperitoneally (IP) for 30 days. This group represents the “Experimental animal model for Cardiac toxicity (IP)”
At the end of the experiments, urethane-anaesthetized rats (1.5 g/kg) were placed in a prone position on a board, and an ECG was continuously recorded using noninvasive computerized ECG apparatus from Kent Scientific (Torrington, CT, USA). Heart rate, ST segment, P wave, QT, P-R and R-R intervals, and QRS complex were calculated from ECG recordings electronically.
(§3) Data were expressed as mean±standard error of the mean (SEM) for six animals (n=6) in each group. Statistically significant differences between the groups were determined using one-way ANOVA followed by Tukey's test as a post-hoc analysis. In all cases, probability values of p<0.05 were taken as statistically significant.

[2] = system: Toll-Like Receptors 4 (TLR4) gene expressions; test: TLR4 gene expression in cardiac tissue by real-time quantitative PCR
Method: as §1
Animals were distributed into 5 groups, each group containing 6 rats (n=6). Group 1 is the control group in which animals were injected with normal saline intraperitoneally (IP). Group 2: The animals were treated with Pazopanib 30 mg/kg twice daily orally for 14 days to induce hypertension. This group represents the “Experimental animal model for hypertension.” Group 3: The animals were treated with Pazopanib 100 mg/kg orally as a single dose. […] This group represents the “Experimental animal model for Cardiac toxicity (IP)”
Blood samples were collected, and centrifuged (10 min/4000 rpm) to separate serum which was then stored in a −80° C. for biochemical analysis. […]
Total RNA was extracted from the cardiac tissue samples according to the Trizol kit instructions. […] The TLR4 primer (5′-[…]-3′ (SEQ ID NO: 1), 3′-[…]-5′ (SEQ ID NO: 2)), TLR2 (5′-[…]-3′ (SEQ ID NO: 3), 3′-[…]-5′ (SEQ ID NO: 4)), MYD88 (5′-[…]-3′ (SEQ ID NO: 5), 3′-[…]-5′ (SEQ ID NO: 6)) were used to detect and quantify related genes in the cDNA using Real-time quantitative PCR. In a 25 μL reaction volume, PCR was performed as follows: initial denaturation for 4 min at 94° C., followed by denaturation for 30 s at 94° C., annealing for 30 s at 62° C., and extension for 2 min at 72° C. for 35 cycles, and final extension for 10 min at 72° C. qPCR was applied using SYBR ExScript RT-PCR kit, and quantification examinations were accomplished via an Opticon-2 Real-time PCR reactor (MJ Research, Capital Court, Reno, NV, USA). qPCR results were obtained using Step PE Applied Biosystems (Waltham, MA, USA) software. Relative gene expression data were calculated using the (2-ΔΔCq2) method and presented as a fold change. Target gene expressions were assessed and related to the internal reference β-actin gene using the primer (5′-ATCCTGCGTCTGGACCTGG-3′ (SEQ ID NO: 7), 5′-[…]-3′ (SEQ ID NO: 8)), and the results were presented in the figures as relative expressions.
(§4) Data were expressed as mean±standard error of the mean (SEM) for six animals (n=6) in each group. Statistically significant differences between the groups were determined using one-way ANOVA followed by Tukey's test as a post-hoc analysis. […]

[3] = Cardiac toxicity identification: serum cardiac marker levels by ELISA; settings: compared with normal rats, p<0.05
Method: as §1
Animals were distributed into 5 groups, each group containing 6 rats (n=6). Group 1 is the control group in which animals were injected with normal saline intraperitoneally (IP). Group 2: The animals were treated with Pazopanib 30 mg/kg twice daily orally for 14 days to induce hypertension. This group represents the “Experimental animal model for hypertension.” Group 3: The animals were treated with Pazopanib 100 mg/kg orally as a single dose. This group represents the “Experimental animal model for arrhythmia.” Group 4: The animals were treated with Pazopanib 300 mg/kg/day orally for 21 days. […] This group represents the “Experimental animal model for Cardiac toxicity (IP)”
Blood samples were collected, and centrifuged (10 min/4000 rpm) to separate serum which was then stored in a −80° C. for biochemical analysis. Thereafter, the anaesthetized animals were sacrificed, and the hearts of different investigational groups were separated, and stored in a −80° C. for subsequent biochemical parameters determination.
ELISA kits, following the manufacturer's instructions, were used to measure serum cardiac marker levels of CPK, CK-MB, cTnT, cTnI and LDH.
as §3

[4] = Blood pressure recording, noninvasive tail-cuff system, experimental animal model for hypertension; settings: 30 mg/kg twice daily orally for 14 days; compared to normal animals
Method: as §1, §2
Blood pressure measurements were performed using a noninvasive computerized tail-cuff system from Emka Technologies' Systems (Paris, France), which involved placing a cuff on the animal's tail to occlude the blood flow. The pressure was raised and then slowly released. The cuff pressure when the pulse signal reappears is intended as the systolic pressure. […]
as §4

[5] = 30 mg/kg/day intraperitoneally (IP) for 21 days
[6] = 300 mg/kg/day orally for 21 days

TLR4 gene expression ([2]; hypertension model: 30 mg/kg twice daily orally for 14 days): significantly increased
Compound: Cc1ccc(Nc2nccc(N(C)c3ccc4c(C)n(C)nc4c3)n2)cc1S(N)(=O)=O [Pazopanib]
P-R interval [1]: shortening | R-R interval [1]: shortening | p wave duration [1]: shortening | QRS interval (QRS complex duration) ([1]; compared to control, p<0.05): prolongation | QT interval ([1]; compared to control, p<0.05): prolongation | ST segment amplitude ([1]; compared to control, p<0.05): elevation | TLR4 gene expression ([2]; arrhythmia model: 100 mg/kg orally as a single dose): significantly increased | TLR4 gene expression ([2]; cardiotoxicity model: 30 mg/kg/day intraperitoneally (IP) for 30 days): significantly increased | TLR4 gene expression ([2]; cardiotoxicity model: 300 mg/kg/day orally for 30 days): significantly increased | serum cardiac troponin I (cTnI) [3, 5]: augmented | serum cardiac troponin T (cTnT) [3, 5]: augmented | serum creatine kinase-myocardial bound (CK-MB) [3, 5]: augmented | serum creatine phosphokinase (CPK) [3, 5]: augmented | serum lactate dehydrogenase (LDH) [3, 5]: augmented | serum cardiac troponin I (cTnI) [3, 6]: augmented | serum cardiac troponin T (cTnT) [3, 6]: augmented | serum creatine kinase-myocardial bound (CK-MB) [3, 6]: augmented | serum creatine phosphokinase (CPK) [3, 6]: augmented | serum lactate dehydrogenase (LDH) [3, 6]: augmented | diastolic blood pressure [4]: elevated | mean blood pressure [4]: elevated | systolic blood pressure [4]: elevated
